Experimental data taken from US20080207614A1, “QUINAZOLINE DERIVATIVES FOR THE TREATMENT AND PREVENTION OF DIABETES AND OBESITY” (SK CHEMICALS CO., LTD., priority 2004, published 2008).

Columns and labels:
C2C12 muscle cells = test: Analysis of glucose absorption (2-deoxyglucose) in differentiated C2C12 muscle cells; type: cell-based; details: test materials 10 μM, times relative to control group
Summary of the method: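 Differentiated C2C12 myotubes (6 days in 1% serum) held 3 h in KRB with 5 mM glucose, then given test material at 10 μM. After 30 min, 0.2 μCi 2-deoxyglucose added for 20 min; uptake measured by radioactive counting of NaOH lysates.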

AMPK = test: Measurement of AMPK activity by Western blot in C2C12 cells; type: cell-based; design: key to AMPK activity (degree of phosphorylation of serine-79 and threonine-172): fold increase in threonine-172 phosphorylation; AMPK activity (degree of phosphorylation of serine-79): unit not given here; details: 10 μM for 50 minutes; for AMPK activity (degree of phosphorylation of serine-79 and threonine-172): no superscript: Western blot of serine-79 and threonine-172 phosphorylation; for AMPK activity (class: degree of phosphorylation of threonine-172): strong/mild/weak; for AMPK activity (degree of phosphorylation of serine-79): footnote a: Western blot of serine-79 phosphorylation
Summary of the method: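 Differentiated C2C12 cells were exposed to test material at 10 μM for 50 minutes, then lysed. AMPK activity was taken from Western blots of Thr-172 phosphorylation and acetyl CoA carboxylase Ser-79 phosphorylation, with ERK as loading reference. Thr-172 rise was graded strong (≥3-fold), mild (1-3-fold) or weak (<1-fold).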

SMILES	Glucose absorption (C2C12 muscle cells)	AMPK activity (degree of phosphorylation of serine-79 and threonine-172) (AMPK)	AMPK activity (class: degree of phosphorylation of threonine-172) (AMPK)	AMPK activity (degree of phosphorylation of serine-79) (AMPK)
CC(C)CC(C)Nc1nc(-c2ccccc2)nc2ccccc12 (centres unmarked) [Compound 125, (1,3-Dimethylbutyl)-(2-phenylquinazolino-4-yl)-amine]	2.8	1.8	strong (“strong” means that the degree of phosphorylation of threonine-172 increased by 3 times or more)	
COc1ccc(OC)c(CNc2nc(C3CC3)nc3ccccc23)c1 [Compound 391, (2-Cyclopropylquinazolino-4-yl)-(2,5-dimethoxybenzyl)-amine]	1.2	7.1		
COc1cc(CNc2nc(N3CCOCC3)nc3ccccc23)cc(OC)c1 [Compound 305, (3,5-Dimethoxybenzyl)-(2-morpholino-4-ylquinazolino-4-yl)-amine]	0.8	2.1		
CCCCN(C)c1nc(-c2ccccc2)nc2ccccc12 [Compound 138, Butylmethyl-(2-phenylquinazolino-4-yl)-amine]	2.4	2.9	strong (“strong” means that the degree of phosphorylation of threonine-172 increased by 3 times or more)	
Cc1nc(NCc2ccc3c(c2)OCO3)c2ccccc2n1 [Compound 170, Benzo[1,3]dioxol-5-ylmethyl-(2-methylquinazolino-4-yl)-amine]	2.4	8.8	strong (“strong” means that the degree of phosphorylation of threonine-172 increased by 3 times or more)	
COc1ccc(CNc2nc(Cc3ccccc3)nc3ccccc23)c(OC)c1 [Compound 272, (2-Benzylquinazolino-4-yl)-(2,4-dimethoxybenzyl)-amine]	0.4	3.4		
c1ccc(CNc2nc(C3CCCCC3)nc3ccccc23)cc1 [Compound 199, Benzyl-(2-cyclohexylquinazolino-4-yl)-amine]	2.1	2.3	strong (“strong” means that the degree of phosphorylation of threonine-172 increased by 3 times or more)	
COc1ccc(CNc2ncnc3ccccc23)c(OC)c1 [Compound 412, (2,4-Dimethoxybenzyl)-quinazolino-4-ylamine]	1.7	8.4		
COc1cc(OC)c(CNc2nc(C(C)C)nc3ccccc23)c(OC)c1 [Compound 327, (2-Isopropylquinazolino-4-yl)-(2,4,6-trimethoxybenzyl)-amine]	1.3	4.4		
CC(C)c1nc(NCc2cccc3ccccc23)c2ccccc2n1 [Compound 181, (2-Isopropylquinazolino-4-yl)-naphthaleno-1-ylmethylamine]	3.1	3.1	strong (“strong” means that the degree of phosphorylation of threonine-172 increased by 3 times or more)	
CCSc1nc(NCc2cccc3ccccc23)c2ccccc2n1 [Compound 35, (2-Ethylsulfanylquinazolino-4-yl)-naphthaleno-1-ylmethyl amine]	1.9		strong (“strong” means that the degree of phosphorylation of threonine-172 increased by 3 times or more)	
COc1ccc(CNc2nc(N3CCN(C)CC3)nc3ccccc23)cc1OC [Compound 302, (3,4-Dimethoxybenzyl)-[2-(4-methylpiperazino-1-yl)-quinazolino-4-yl]-amine]	0.7	1.2		
c1ccc(CCNc2nc(C3CCCCC3)nc3ccccc23)cc1 [Compound 203, (2-Cyclohexylquinazolino-4-yl)-phenethylamine]	2.0	3.9	strong (“strong” means that the degree of phosphorylation of threonine-172 increased by 3 times or more)	
COc1ccc(CNc2nc(C3CC3)nc3ccccc23)cc1OC [Compound 388, (2-Cyclopropylquinazolino-4-yl)-(3,4-dimethoxybenzyl)-amine]	1.2	2.8		
COc1cc(CNc2nc(N3CCCC3)nc3ccccc23)cc(OC)c1 [Compound 303, (3,5-Dimethoxybenzyl)-(2-pyrrolidino-1-ylquinazolino-4-yl)-amine]	1.0	1.0		
COc1cc(CNc2nc(C(C)c3ccccc3)nc3ccccc23)cc(OC)c1 (centres unmarked) [Compound 376, (3,5-Dimethoxybenzyl)-[2-(1-phenylethyl)-quinazolino-4-yl]-amine]	1.1	1.1		
COc1ccc(OC)c(CNc2nc(-c3ccccc3)nc3ccccc23)c1 [Compound 147, (2,5-Dimethoxybenzyl)-(2-phenylquinazolino-4-yl)-amine]	1.3	1.8	strong (“strong” means that the degree of phosphorylation of threonine-172 increased by 3 times or more)	
COc1cc(CNc2nc(C3CC3)nc3ccccc23)cc(OC)c1 [Compound 387, (2-Cyclopropylquinazolino-4-yl)-(3,5-dimethoxybenzyl)-amine]	1.2	1.5		
CCOc1cc2ncnc(NCc3ccc(Cl)cc3)c2cc1OCC [Compound 18, (4-Chlorobenzyl)-(6,7-diethoxyquinazolino-4-yl)-amine]	1.0			6.0^a
CCSc1nc(NCCc2cccc(C(F)(F)F)c2)c2ccccc2n1 [Compound 12, (2-Ethylsulfanylquinazolino-4-yl)-[2-(3-trifluoromethyl-phenyl)ethyl]-amine]	0.8			4.0^a
COc1cccc(CNc2nc(C)nc3ccccc23)c1 [Compound 164, (3-Methoxybenzyl)-(2-methylquinazolino-4-yl)-amine]	3.4	1.6	mild (“mild” means that the degree of phosphorylation of threonine-172 increased by 1 to 3 times)	
COc1ccc(CSc2nc(-c3ccccc3)nc3ccccc23)c(OC)c1 [Compound 274, 4-(2,4-Dimethoxybenzylsulfanyl)-2-phenylquinazoline]	0.8	1.9		
CCSc1nc(NCc2cccc(C(F)(F)F)c2)c2ccccc2n1 [Compound 26, (2-Ethylsulfanylquinazolino-4-yl)-(3-trifluoromethylbenzyl)-amine]	1.7		mild (“mild” means that the degree of phosphorylation of threonine-172 increased by 1 to 3 times)	
COc1ccc(CNc2nc(N3CCCC3)nc3ccccc23)cc1OC [Compound 299, (3,4-Dimethoxybenzyl)-(2-pyrrolidino-1-ylquinazolino-4-yl)-amine]	0.8	0.6		
COc1ccc(COc2nc(-c3ccccc3)nc3ccccc23)c(OC)c1 [Compound 273, 4-(2,4-Dimethoxybenzyloxy)-2-phenylquinazoline]	0.7	1.5		
COc1cc(OC)c(CNc2ncnc3ccccc23)c(OC)c1 [Compound 414, Quinazolino-4-yl-(2,4,6-trimethoxybenzyl)-amine]	1.5	2.9		
CCOc1cc2ncnc(NCCc3ccccn3)c2cc1OCC [Compound 17, (6,7-Diethoxyquinazolino-4-yl)-(2-pyridino-2-ylethyl)-amine]	1.2			2.2^a
Fc1ccccc1CCNc1nc(-c2ccccc2)nc2ccccc12 [Compound 140, [2-(2-Fluorophenyl)-ethyl]-(2-phenylquinazolino-4-yl)-amine]	2.7	3.1	strong (“strong” means that the degree of phosphorylation of threonine-172 increased by 3 times or more)	
c1ccc(CCCCNc2nc(-c3ccccn3)nc3ccccc23)cc1 [Compound 228, (4-Phenylbutyl)-(2-pyridino-2-ylquinazolino-4-yl)-amine]	2.1	7.9	strong (“strong” means that the degree of phosphorylation of threonine-172 increased by 3 times or more)	
COc1ccc(CNc2nc(-c3ccccc3)nc3ccccc23)cc1OC [Compound 118, (3,4-Dimethoxybenzyl)-(2-phenylquinazolino-4-yl)-amine]	2.1	2.0	strong (“strong” means that the degree of phosphorylation of threonine-172 increased by 3 times or more)	
